In publication PMC6210068 (ACS Omega, 2018):

Tests used:
hDAT = hDAT (Homo sapiens, UniProt Q01959); assay: Radioligand binding at DAT; conditions: 10 μM; [3H]WIN35428; negative = enhanced radioligand binding
rat kidney TSPO = rat kidney TSPO (Rattus norvegicus, UniProt P16257); assay: Radioligand binding at TSPO; conditions: Table 4; 10 μM
hNET = hNET (Homo sapiens, UniProt P23975); conditions: read-out: Ki, inhibition of binding of [3H]104 at NET; cited from earlier work
DOR = DOR (Homo sapiens, UniProt P41143); assay: Radioligand binding at DOR; conditions: Table 4; 10 μM
DOR, sequence (P41143 whole entry): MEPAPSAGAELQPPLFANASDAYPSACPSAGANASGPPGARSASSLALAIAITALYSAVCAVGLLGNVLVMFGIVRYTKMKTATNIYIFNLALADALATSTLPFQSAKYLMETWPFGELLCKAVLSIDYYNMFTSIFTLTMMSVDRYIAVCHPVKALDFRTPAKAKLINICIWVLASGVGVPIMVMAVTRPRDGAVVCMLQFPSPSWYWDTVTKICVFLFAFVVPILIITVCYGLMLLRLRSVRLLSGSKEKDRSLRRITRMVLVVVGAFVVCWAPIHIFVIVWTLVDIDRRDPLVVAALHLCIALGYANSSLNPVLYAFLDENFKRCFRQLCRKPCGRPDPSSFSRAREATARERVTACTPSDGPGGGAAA

rat kidney TSPO, sequence (P16257 whole entry): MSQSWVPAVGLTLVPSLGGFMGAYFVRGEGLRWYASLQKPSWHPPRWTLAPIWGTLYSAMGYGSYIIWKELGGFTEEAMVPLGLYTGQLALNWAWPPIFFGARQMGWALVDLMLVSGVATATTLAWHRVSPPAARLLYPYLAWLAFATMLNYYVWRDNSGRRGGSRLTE
hNET, sequence (P23975 whole entry): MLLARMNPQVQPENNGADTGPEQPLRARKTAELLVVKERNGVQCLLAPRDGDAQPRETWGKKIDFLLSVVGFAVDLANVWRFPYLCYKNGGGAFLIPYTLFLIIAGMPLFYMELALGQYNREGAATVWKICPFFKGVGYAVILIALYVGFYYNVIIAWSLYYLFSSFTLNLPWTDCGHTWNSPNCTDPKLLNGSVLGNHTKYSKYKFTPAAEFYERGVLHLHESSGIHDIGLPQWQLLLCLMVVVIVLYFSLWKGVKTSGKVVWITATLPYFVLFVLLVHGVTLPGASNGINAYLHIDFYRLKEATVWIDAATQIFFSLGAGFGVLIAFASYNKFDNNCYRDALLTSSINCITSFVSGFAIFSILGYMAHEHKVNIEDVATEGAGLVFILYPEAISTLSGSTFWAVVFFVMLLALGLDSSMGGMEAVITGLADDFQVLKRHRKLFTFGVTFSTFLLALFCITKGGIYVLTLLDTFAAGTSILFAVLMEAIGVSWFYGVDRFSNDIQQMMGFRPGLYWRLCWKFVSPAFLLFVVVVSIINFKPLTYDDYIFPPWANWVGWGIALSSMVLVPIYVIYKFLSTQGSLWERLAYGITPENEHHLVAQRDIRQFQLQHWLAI
hDAT, sequence (Q01959 whole entry): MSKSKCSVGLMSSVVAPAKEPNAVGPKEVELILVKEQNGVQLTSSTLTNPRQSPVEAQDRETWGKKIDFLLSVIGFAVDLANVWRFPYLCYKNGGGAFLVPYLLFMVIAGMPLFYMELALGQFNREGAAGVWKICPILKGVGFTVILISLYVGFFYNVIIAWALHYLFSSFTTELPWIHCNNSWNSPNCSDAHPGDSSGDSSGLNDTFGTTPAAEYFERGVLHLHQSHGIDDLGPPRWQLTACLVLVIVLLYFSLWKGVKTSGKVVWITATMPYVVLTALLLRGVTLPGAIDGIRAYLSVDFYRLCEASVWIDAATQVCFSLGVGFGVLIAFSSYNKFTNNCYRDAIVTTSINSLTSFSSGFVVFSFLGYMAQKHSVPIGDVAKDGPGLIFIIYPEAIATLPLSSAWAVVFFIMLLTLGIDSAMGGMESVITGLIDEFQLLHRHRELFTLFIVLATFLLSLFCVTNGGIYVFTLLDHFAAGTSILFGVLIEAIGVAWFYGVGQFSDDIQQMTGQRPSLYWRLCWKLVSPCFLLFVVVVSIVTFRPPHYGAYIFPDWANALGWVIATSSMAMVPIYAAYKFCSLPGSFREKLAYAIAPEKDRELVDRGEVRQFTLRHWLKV

DAT, inhibition, % of control at 10 μM (hDAT): –154%
SMILES: CCNc1nc(C#Cc2ccccc2)nc2c1ncn2[C@H]1[C@H](O)[C@H](O)[C@@H]2C[C@@H]21 [compound 50]
TSPO, inhibition of radioligand binding at 10 μM (class) (rat kidney TSPO): ^f (30–50% inhibition of radioligand binding at 10 μM)
Ki (hNET): 8.66 µM
DOR, inhibition of radioligand binding at 10 μM (class) (DOR): ^g (<30% inhibition of radioligand binding at 10 μM)
